From patent publication US20250215101A1, “DR5 Agonist and PLK1 Inhibitor or CDK Inhibitor Combination Therapy” (Inhibrx Biosciences, Inc., priority 2022, published 2025)
Read-outs that look alike come from different tables or passages of the source.

Legend:
Assay type in all cases: cell-based
HT-29 = assay: Cell viability (CellTiter-Glo) cytotoxicity assay, INBRX-109 x onvansertib matrix, 48 h; details: for Max Cytotox at 200 nM: HT-29; for EC50: Homo sapiens, HT-29, HT-29
Description: (§1) Monolayer cultures of each cell line were harvested for compound screening as detailed below.
(§2) Onvansertib: A 10 mg stock of onvansertib was purchased from Selleck Chemicals and was resuspended to 10 mM in DMSO. This was then aliquoted and stored at −80° C. Aliquots were thawed immediately prior to dilution and use in the assay. A 500× master plate of serial dilutions (6-point 5-fold dilutions in 100% DMSO starting at 500 μM, plus a DMSO only control) was prepared and mixed gently with a pipette. To generate a 5× working dilution plate of onvansertib, a 1:100 dilution was performed from the 500× plate into complete media (EMEM).
(§3) Also on day 2, test and control articles were added.
(§4) On day 4, viability measurements were taken. […] Data was graphed in GraphPad Prism 9.

LS174T = assay: as above; details: for EC50: Homo sapiens
Description: as §1, §2, §3, §4

LS411N = assay: as above; details: for EC50: Homo sapiens, LS-411N
Description: as §1, §2, §3, §4

SW1463 = assay: as above; details: for EC50: Homo sapiens, SW1463, SW1463; for Max Cytotox at 200 nM: SW1463
Description: as §1, §2, §3, §4

SW620 = assay: as above; details: for EC50: Homo sapiens, SW-620, SW620; for Max Cytotox at 200 nM: SW620
Description: as §1, §2, §3, §4

SW837 = assay: as above; details: for EC50: Homo sapiens, SW837, SW837; for Max Cytotox at 200 nM: SW837
Description: as §1, §2, §3, §4

AsPC-1 = assay: Cytotoxicity assay, pancreatic cell line panel, onvansertib +/- 1 nM INBRX-109; details: for Max Cytotox at 600 nM: AsPC-1; for EC50: Homo sapiens, ASPC1, AsPC-1
Description: as §1, §3, §4
(§5) The results for a panel of colorectal cancer cell lines are shown in Table 3 and FIGS. 4-6, and the results for a panel of pancreatic cell lines are shown in Table 4 and FIGS. 7 and 8.

BxPC-3 = assay: as above; details: for Max Cytotox at 600 nM: BxPC-3; for EC50: Homo sapiens, BXPC-3, BxPC-3
Description: as §1, §3, §4, §5

CFPAC-1 = assay: as above; details: for Max Cytotox at 600 nM: CFPAC-1; for EC50: Homo sapiens, CFPAC-1, CFPAC-1
Description: as §1, §3, §4, §5

Capan-1 = assay: as above; details: for Max Cytotox at 600 nM: Capan-1; for EC50: Homo sapiens, CAPAN-1, Capan-1
Description: as §1, §3, §4, §5

Capan-2 = assay: as above; details: for Max Cytotox at 600 nM: Capan-2; for EC50: Homo sapiens, Capan-2, Capan-2
Description: as §1, §3, §4, §5

HPAF-II = assay: as above; details: for EC50: Homo sapiens
Description: as §1, §3, §4, §5

HuP-T4 = assay: as above; details: for EC50: Homo sapiens, HuP-T4, HuP-T4; for Max Cytotox at 600 nM: HuP-T4
Description: as §1, §3, §4, §5

KP4 = assay: as above; details: for EC50: Homo sapiens, KP-4, KP4; for Max Cytotox at 600 nM: KP4
Description: as §1, §3, §4, §5

MIA PaCa-2 = assay: as above; details: for EC50: Homo sapiens, MIA PaCa-2, MIA PaCa-2; for Max Cytotox at 600 nM: MIA PaCa-2
Description: as §1, §3, §4, §5

PANC-1 = assay: as above; details: for EC50: Homo sapiens, PANC-1, PANC-1; for Max Cytotox at 600 nM: PANC-1
Description: as §1, §3, §4, §5

PL45 = assay: as above; details: for EC50: PL45, PL45; for Max Cytotox at 600 nM: PL45
Description: as §1, §3, §4, §5

PSN-1 = assay: as above; details: for EC50: Homo sapiens, PSN1, PSN-1; for Max Cytotox at 600 nM: PSN-1
Description: as §1, §3, §4, §5

Panc 03.27 = assay: as above; details: for EC50: Homo sapiens, PANC-03-27, Panc 03.27; for Max Cytotox at 600 nM: Panc 03.27
Description: as §1, §3, §4, §5

Panc 05.04 = assay: as above; details: for EC50: Panc 05.04, Panc 05.04; for Max Cytotox at 600 nM: Panc 05.04
Description: as §1, §3, §4, §5

Panc 10.05 = assay: as above; details: for EC50: Homo sapiens, Panc1005, Panc 10.05; for Max Cytotox at 600 nM: Panc 10.05
Description: as §1, §3, §4, §5

SU.86.86 = assay: as above; details: for EC50: Homo sapiens, SU.86.86, SU.86.86; for Max Cytotox at 600 nM: SU.86.86
Description: as §1, §3, §4, §5

SW-1990 = assay: as above; details: for EC50: Homo sapiens, SW1990, SW-1990; for Max Cytotox at 600 nM: SW-1990
Description: as §1, §3, §4, §5

[1] = tested on: panel of colorectal cancer cell lines and panel of pancreatic cell lines; assay: Cytotoxicity screen onvansertib +/- 1 nM INBRX-109, summary over the additional panels; details: combination of INBRX-109 and onvansertib
Source text: as §5

CN1CCN(c2ccc(OC(F)(F)F)c(Nc3ncc4c(n3)-c3c(c(C(N)=O)nn3CCO)CC4)c2)CC1 [Onvansertib]
Max Cytotox at 200 nM (HT-29; onvansertib + 1 nM INBRX-109): 94.63%
Max Cytotox at 200 nM (HT-29; onvansertib only): 5.54%
EC50 (HT-29; onvansertib + 1 nM INBRX-109): 0.0214 µM
EC50 (HT-29; onvansertib only): ~0.0023 µM
EC50 (LS174T; onvansertib + 1 nM INBRX-109): ~0.0547 µM
EC50 (LS174T; onvansertib only): ~0.197 µM
Max Cytotox at 200 nM (LS174T; onvansertib + 1 nM INBRX-109): 79.32%
Max Cytotox at 200 nM (LS174T; onvansertib only): 16.93%
EC50 (LS411N; onvansertib + 1 nM INBRX-109, read-out: EC50): ~0.0103 µM
EC50 (LS411N; onvansertib only, read-out: EC50): ~4150 µM
Max Cytotox at 200 nM (LS411N; onvansertib + 1 nM INBRX-109): 84.45%
Max Cytotox at 200 nM (LS411N; onvansertib only): 12.35%
EC50 (SW1463; onvansertib + 1 nM INBRX-109): ~0.0382 µM
EC50 (SW1463; onvansertib only): 0.124 µM
Max Cytotox at 200 nM (SW1463; onvansertib + 1 nM INBRX-109): 74.39%
Max Cytotox at 200 nM (SW1463; onvansertib only): 25.79%
EC50 (SW620; onvansertib + 1 nM INBRX-109): 0.0305 µM
EC50 (SW620; onvansertib only): 0.0313 µM
Max Cytotox at 200 nM (SW620; onvansertib + 1 nM INBRX-109): 87.53%
Max Cytotox at 200 nM (SW620; onvansertib only): 51.37%
EC50 (SW837; onvansertib + 1 nM INBRX-109): ~0.0432 µM
EC50 (SW837; onvansertib only): 27.2 µM
Max Cytotox at 200 nM (SW837; onvansertib + 1 nM INBRX-109): 80.64%
Max Cytotox at 200 nM (SW837; onvansertib only): 27.17%
Max Cytotox at 600 nM (AsPC-1; onvansertib + 1 nM INBRX-109): 60.0%
Max Cytotox at 600 nM (AsPC-1; onvansertib only): 19.9%
EC50 (AsPC-1; onvansertib + 1 nM INBRX-109): 0.23 µM
EC50 (AsPC-1; onvansertib only): 0.444 µM
Max Cytotox at 600 nM (BxPC-3; onvansertib + 1 nM INBRX-109): 91.8%
Max Cytotox at 600 nM (BxPC-3; onvansertib only): 70.1%
EC50 (BxPC-3; onvansertib + 1 nM INBRX-109): 0.119 µM
EC50 (BxPC-3; onvansertib only): 0.139 µM
Max Cytotox at 600 nM (CFPAC-1; onvansertib + 1 nM INBRX-109): 86.4%
Max Cytotox at 600 nM (CFPAC-1; onvansertib only): 45.3%
EC50 (CFPAC-1; onvansertib + 1 nM INBRX-109): 0.154 µM
EC50 (CFPAC-1; onvansertib only): 0.135 µM
Max Cytotox at 600 nM (Capan-1; onvansertib + 1 nM INBRX-109): 94.3%
Max Cytotox at 600 nM (Capan-1; onvansertib only): 27.8%
EC50 (Capan-1; onvansertib + 1 nM INBRX-109): 0.079 µM
EC50 (Capan-1; onvansertib only): 0.186 µM
Max Cytotox at 600 nM (Capan-2; onvansertib + 1 nM INBRX-109): 46.2%
Max Cytotox at 600 nM (Capan-2; onvansertib only): 3.9%
EC50 (Capan-2; onvansertib + 1 nM INBRX-109): 0.135 µM
EC50 (Capan-2; onvansertib only): 0.15 µM
EC50 (HPAF-II; onvansertib + 1 nM INBRX-109): 0.0519 µM
EC50 (HPAF-II; onvansertib only): 0.0633 µM
Max Cytotox at 600 nM (HPAF-II; onvansertib + 1 nM INBRX-109): 68.2%
Max Cytotox at 600 nM (HPAF-II; onvansertib only): 27.2%
EC50 (HuP-T4; onvansertib + 1 nM INBRX-109): 0.0351 µM
EC50 (HuP-T4; onvansertib only): 0.138 µM
Max Cytotox at 600 nM (HuP-T4; onvansertib + 1 nM INBRX-109): 85.3%
Max Cytotox at 600 nM (HuP-T4; onvansertib only): 33.7%
EC50 (KP4; onvansertib + 1 nM INBRX-109): 0.0824 µM
EC50 (KP4; onvansertib only): 0.105 µM
Max Cytotox at 600 nM (KP4; onvansertib + 1 nM INBRX-109): 97.8%
Max Cytotox at 600 nM (KP4; onvansertib only): 74.7%
EC50 (MIA PaCa-2; onvansertib + 1 nM INBRX-109): 0.0813 µM
EC50 (MIA PaCa-2; onvansertib only): 0.179 µM
Max Cytotox at 600 nM (MIA PaCa-2; onvansertib + 1 nM INBRX-109): 96.4%
Max Cytotox at 600 nM (MIA PaCa-2; onvansertib only): 67.0%
EC50 (PANC-1; onvansertib + 1 nM INBRX-109): 0.121 µM
EC50 (PANC-1; onvansertib only): 0.152 µM
Max Cytotox at 600 nM (PANC-1; onvansertib + 1 nM INBRX-109): 87.2%
Max Cytotox at 600 nM (PANC-1; onvansertib only): 36.2%
EC50 (PL45; onvansertib + 1 nM INBRX-109): 0.0681 µM
EC50 (PL45; onvansertib only): 0.0836 µM
Max Cytotox at 600 nM (PL45; onvansertib + 1 nM INBRX-109): 82.2%
Max Cytotox at 600 nM (PL45; onvansertib only): 56.5%
EC50 (PSN-1; onvansertib + 1 nM INBRX-109): 0.063 µM
EC50 (PSN-1; onvansertib only): 0.0853 µM
Max Cytotox at 600 nM (PSN-1; onvansertib + 1 nM INBRX-109): 98.0%
Max Cytotox at 600 nM (PSN-1; onvansertib only): 83.2%
EC50 (Panc 03.27; onvansertib + 1 nM INBRX-109): 0.09 µM
EC50 (Panc 03.27; onvansertib only): 0.121 µM
Max Cytotox at 600 nM (Panc 03.27; onvansertib + 1 nM INBRX-109): 87.5%
Max Cytotox at 600 nM (Panc 03.27; onvansertib only): 36.7%
EC50 (Panc 05.04; onvansertib + 1 nM INBRX-109): 0.0611 µM
EC50 (Panc 05.04; onvansertib only): 0.205 µM
Max Cytotox at 600 nM (Panc 05.04; onvansertib + 1 nM INBRX-109): 97.4%
Max Cytotox at 600 nM (Panc 05.04; onvansertib only): 44.4%
EC50 (Panc 10.05; onvansertib + 1 nM INBRX-109): 0.0817 µM
EC50 (Panc 10.05; onvansertib only): 0.0819 µM
Max Cytotox at 600 nM (Panc 10.05; onvansertib + 1 nM INBRX-109): 83.3%
Max Cytotox at 600 nM (Panc 10.05; onvansertib only): 47.2%
EC50 (SU.86.86; onvansertib + 1 nM INBRX-109): 0.0914 µM
EC50 (SU.86.86; onvansertib only): 0.629 µM
Max Cytotox at 600 nM (SU.86.86; onvansertib + 1 nM INBRX-109): 98.9%
Max Cytotox at 600 nM (SU.86.86; onvansertib only): 30.5%
EC50 (SW-1990; onvansertib + 1 nM INBRX-109): 0.598 µM
EC50 (SW-1990; onvansertib only): 0.7 µM
Max Cytotox at 600 nM (SW-1990; onvansertib + 1 nM INBRX-109): 68.7%
Max Cytotox at 600 nM (SW-1990; onvansertib only): 13.4%
cell killing by the combination compared to either agent alone [1]: increased cell killing
